Data on 19 compounds can be found in patent US12319676B2, “Substituted amide compounds useful as farnesoid X receptor modulators” (BRISTOL-MYERS SQUIBB COMPANY, priority 2019, dated 2025).

In this experiment the target is T1, human FXR (Homo sapiens, UniProt Q96RI1).
T1 construct: expressed in transfected cells; host or cells: HEK293 cells stably carrying a 5xGal4 response element-luciferase reporter, transiently transfected with pcDNA3.1-Gal4-FXR
T1 sequence (Q96RI1 262-486 limits assumed): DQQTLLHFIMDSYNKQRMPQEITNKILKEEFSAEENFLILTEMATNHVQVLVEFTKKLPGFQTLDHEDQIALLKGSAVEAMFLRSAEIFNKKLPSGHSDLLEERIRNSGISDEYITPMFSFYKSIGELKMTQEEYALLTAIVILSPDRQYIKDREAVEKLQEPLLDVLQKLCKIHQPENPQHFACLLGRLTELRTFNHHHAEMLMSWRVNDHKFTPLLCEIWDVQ
Description: transient human FXR/Gal4-luciferase reporter assay. The class given is cell-based. The settings on record: Gal4-hFXR fusion construct, luciferase reporter in HEK293 cells; overnight incubation; response as percentage of 8 μM GW-4064 control. Here is the method:
The exemplified compounds of the present invention were tested in the transient human FXR/Gal4-luciferase reporter assay, and assay results were reported in Table 1 and Examples 1 to 3 together with other analytical data. A Gal4-hFXR fusion construct reporter system was used as the primary assay to characterize compound activity. A construct including 5 copies of the Gal4 promoter response element upstream of a firefly luciferase reporter cDNA was stably expressed in HEK293 cells. This reporter cell line was maintained in Dulbecco's Modified Eagle's medium (DMEM; Gibco) supplemented with 1% penicillin-streptomycin (P/S) solution, 500 μg/mL Zeocin and 10% charcoal/dextran-treated fetal bovine serum (cs-FBS) at 37° C. in a humidified 5% CO2 atmosphere. Another plasmid was constructed in which the human cytomegalovirus promoter in the pcDNA3.1 vector directs the expression of the cDNA encoding a fusion protein comprised of the DNA binding domain from the Gal4 transcription factor fused to the ligand binding domain from human FXR. The day prior to transfection, the reporter cells in culture are detached from the plate with trypsin and plated into a T75 flask at a sufficient density to achieve approximately 90% confluence the next morning. The transfection reagents are prepared by separately diluting 25 μg of the pcDNA3.1-Gal4-FXR plasmid into 1.87 mL of Opti-MEM (Thermo-Fisher), and 40 μL of Lipofectamine 2000 (Thermo-Fisher) into 1.87 mL of Opti-MEM, and then adding the diluted DNA solution into the diluted Lipofectamine 2000 solution and incubating at room temperature for 15-20 minutes. The mixture is further diluted with 10 mL of a solution comprised of DMEM, 10% cs-FBS, and 1% P/S immediately prior to transferring to the cells. The maintenance culture media is aspirated from the cells and the final transfection mixture is added before the cells are incubated overnight at 37° C. in a humidified 5% CO2 atmosphere. This protocol can be scaled up, and the transiently transfected cells can be cryopreserved in an assay-ready format. For compound testing, 100 nL of the compounds (serial dilutions in DMSO) are dispensed with an Echo acoustic dispenser (Labcyte) into the wells of a Corning/Costar clear bottom 384-well white plate. The transfected cells are harvested, counted, and diluted such that 10-25,000 cells in 25 μL are plated into each well of the 384-well compound assay plate. The compound-treated cells are incubated overnight at 37° C. in a humidified 5% CO2 atmosphere. The next morning 25 μL of Steady-Glo (Promega) are added to each well of the plate, the mixture is incubated for 15 min. with shaking, and luminescence is measured on an Envision (Perkin Elmer) plate reader. Background counts from cells treated with DMSO alone are subtracted from all raw counts, and the corrected values are converted to a percentage of the control response attained with 8 μM GW-4064.
In general terms: Reporter assays use an easily measured gene product as a stand-in for the process of interest.
For `CC(F)(F)c1nc(C23CCC(CN(c4cccc(S(=O)(=O)NC5CC5)c4)C(=O)[C@H]4C[C@](O)(C(F)(F)F)C4)(CC2)CC3)no1` [Example 19, (1S,3S)-N-(3-(N-cyclopropylsulfamoyl)phenyl)-N-((4-(5-(1,1-difluoroethyl)-1,2,4-oxadiazol-3-yl)bicyclo[2.2.2]octan-1-yl)methyl)-3-hydroxy-3-(trifluoromethyl)cyclobutane-1-carboxamide], the response was half-maximal at 4000 nM (EC50).

For the compound `CC(F)(F)c1nc(C23CCC(CN(C(=O)C4CCC(F)(F)CC4)c4cccc(S(=O)(=O)NC5CC5)c4)(CC2)CC3)no1` [Example 20, N-(3-(N-cyclopropylsulfamoyl)phenyl)-N-((4-(5-(1,1-difluoroethyl)-1,2,4-oxadiazol-3-yl)bicyclo[2.2.2]octan-1-yl)methyl)-4,4-difluorocyclohexane-1-carboxamide], the EC50 (as a rule, the concentration giving half of the maximal effect) was 4000 nM.

As for `CNS(=O)(=O)c1cccc(N(CC23CCC(c4noc(C(C)(F)F)n4)(CC2)CC3)C(=O)C23CC(F)(C2)C3)c1` [Example 21, N-((4-(5-(1,1-difluoroethyl)-1,2,4-oxadiazol-3-yl)bicyclo[2.2.2]octan-1-yl)methyl)-3-fluoro-N-(3-(N-methylsulfamoyl)phenyl)bicyclo[1.1.1]pentane-1-carboxamide], the concentration giving a half-maximal response (EC50) came to 4000 nM. On to `CNS(=O)(=O)c1cccc(N(CC23CCC(c4noc(C(C)(F)F)n4)(CC2)CC3)C(=O)[C@H]2C[C@](O)(C(F)(F)F)C2)c1` [Example 22, (1S,3S)-N-((4-(5-(1,1-difluoroethyl)-1,2,4-oxadiazol-3-yl)bicyclo[2.2.2]octan-1-yl)methyl)-3-hydroxy-N-(3-(N-methylsulfamoyl)phenyl)-3-(trifluoromethyl)cyclobutane-1-carboxamide], for which the EC50 was 4000 nM.

On to `CNS(=O)(=O)c1cccc(N(CC23CCC(c4noc(C(C)(F)F)n4)(CC2)CC3)C(=O)C2CCC(F)(F)CC2)c1` [Example 23, N-((4-(5-(1,1-difluoroethyl)-1,2,4-oxadiazol-3-yl)bicyclo[2.2.2]octan-1-yl)methyl)-4,4-difluoro-N-(3-(N-methylsulfamoyl)phenyl)cyclohexane-1-carboxamide], for which the EC50 came out at 4000 nM. In the case of `CC(F)(F)c1nc(C23CCC(CN(C(=O)C4CCC(F)(F)CC4)c4cccc(P(C)(C)=O)c4)(CC2)CC3)no1` [Example 24, N-((4-(5-(1,1-difluoroethyl)-1,2,4-oxadiazol-3-yl)bicyclo[2.2.2]octan-1-yl)methyl)-N-(3-(dimethylphosphoryl)phenyl)-4,4-difluorocyclohexane-1-carboxamide] it was 4000 nM; in that of `CC(F)(F)c1nc(C23CCC(CN(C(=O)C45CC(F)(C4)C5)c4cccc(P(C)(C)=O)c4)(CC2)CC3)no1` [Example 25, N-((4-(5-(1,1-difluoroethyl)-1,2,4-oxadiazol-3-yl)bicyclo[2.2.2]octan-1-yl)methyl)-N-(3-(dimethylphosphoryl)phenyl)-3-fluorobicyclo[1.1.1]pentane-1-carboxamide], 4000 nM. In the case of `CC(F)(F)c1nc(C23CCC(CN(c4cccc(P(C)(C)=O)c4)C(=O)[C@H]4C[C@](O)(C(F)(F)F)C4)(CC2)CC3)no1` [Example 26, (1S,3S)-N-((4-(5-(1,1-difluoroethyl)-1,2,4-oxadiazol-3-yl)bicyclo[2.2.2]octan-1-yl)methyl)-N-(3-(dimethylphosphoryl)phenyl)-3-hydroxy-3-(trifluoromethyl)cyclobutane-1-carboxamide] it was 4000 nM; in that of `COC(=O)c1cccc(N(CC23CCC(c4noc(C(C)(F)F)n4)(CC2)CC3)C(=O)C23CC(F)(C2)C3)c1` [Example 27, Methyl 3-(N-((4-(5-(1,1-difluoroethyl)-1,2,4-oxadiazol-3-yl)bicyclo[2.2.2]octan-1-yl)methyl)-3-fluorobicyclo[1.1.1]pentane-1-carboxamido)benzoate], 72 nM.

The compound `CCNC(=O)c1cccc(N(CC23CCC(c4noc(C(C)(F)F)n4)(CC2)CC3)C(=O)C23CC(F)(C2)C3)c1` [Example 28, N-((4-(5-(1,1-difluoroethyl)-1,2,4-oxadiazol-3-yl)bicyclo[2.2.2]octan-1-yl)methyl)-N-(3-(ethylcarbamoyl)phenyl)-3-fluorobicyclo[1.1.1]pentane-1-carboxamide] displayed an EC50 of 210 nM. In the case of `CC(F)(F)c1nc(C23CCC(CN(C(=O)C45CC(F)(C4)C5)c4cccc(C(N)=O)c4)(CC2)CC3)no1` [Example 29, N-(3-carbamoylphenyl)-N-((4-(5-(1,1-difluoroethyl)-1,2,4-oxadiazol-3-yl)bicyclo[2.2.2]octan-1-yl)methyl)-3-fluorobicyclo[1.1.1]pentane-1-carboxamide] it was 902 nM. `CC(F)(F)c1nc(C23CCC(CN(C(=O)N[C@H]4CC[C@](C)(O)CC4)c4cccc(Br)c4)(CC2)CC3)no1` [Example 30, 1-(3-bromophenyl)-1-((4-(5-(1,1-difluoroethyl)-1,2,4-oxadiazol-3-yl)bicyclo[2.2.2]octan-1-yl)methyl)-3-((1R,4R)-4-hydroxy-4-methylcyclohexyl)urea]: the EC50 was found to be 150 nM. In the case of `CC(C)(C)OC(=O)Nc1cccc(N(CC23CCC(c4noc(C(C)(F)F)n4)(CC2)CC3)C(=O)C23CC(F)(C2)C3)c1` [Example 32, Tert-butyl (3-(N-((4-(5-(1,1-difluoroethyl)-1,2,4-oxadiazol-3-yl)bicyclo[2.2.2]octan-1-yl)methyl)-3-fluorobicyclo[1.1.1]pentane-1-carboxamido)phenyl)carbamate] it was 62 nM; in that of `CC(F)(F)c1nc(C23CCC(CN(C(=O)C45CC(F)(C4)C5)c4cccc(Br)c4)(CC2)CC3)no1` [Example 33, N-(3-bromophenyl)-N-((4-(5-(1,1-difluoroethyl)-1,2,4-oxadiazol-3-yl)bicyclo[2.2.2]octan-1-yl)methyl)-3-fluorobicyclo[1.1.1]pentane-1-carboxamide], 13 nM; in that of `O=C(N(CC12CCC(c3noc(C4(F)CC4)n3)(CC1)CC2)c1cccc(Br)c1)C12CC(F)(C1)C2` [Example 34, N-(3-bromophenyl)-3-fluoro-N-((4-(5-(1-fluorocyclopropyl)-1,2,4-oxadiazol-3-yl)bicyclo[2.2.2]octan-1-yl)methyl)bicyclo[1.1.1]pentane-1-carboxamide], 20 nM.

`O=C(N(CC12CCC(c3noc(C(F)(F)F)n3)(CC1)CC2)c1cccc(Br)c1)C12CC(F)(C1)C2` [Example 35, N-(3-bromophenyl)-3-fluoro-N-((4-(5-(trifluoromethyl)-1,2,4-oxadiazol-3-yl)bicyclo[2.2.2]octan-1-yl)methyl)bicyclo[1.1.1]pentane-1-carboxamide]: it took 42 nM to reach a half-maximal effect (EC50).

As to `CC(C)(C)c1noc(C23CCC(CN(c4cccc(Br)c4)C(=O)[C@H]4C[C@](O)(C(F)(F)F)C4)(CC2)CC3)n1` [Example 36, (1S,3S)—N-(3-bromophenyl)-N-((4-(3-(tert-butyl)-1,2,4-oxadiazol-5-yl)bicyclo[2.2.2]octan-1-yl)methyl)-3-hydroxy-3-(trifluoromethyl)cyclobutane-1-carboxamide], the EC50 stood at 135 nM. The compound `CC(C)(C)c1noc(C23CCC(CN(C(=O)C45CC(F)(C4)C5)c4ccc(Cl)c(Br)c4)(CC2)CC3)n1` [Example 37, N-(3-bromo-4-chlorophenyl)-N-((4-(3-(tert-butyl)-1,2,4-oxadiazol-5-yl)bicyclo[2.2.2]octan-1-yl)methyl)-3-fluorobicyclo[1.1.1]pentane-1-carboxamide] yielded an EC50 of 1080 nM.

Compound `CC(C)(C)c1noc(C23CCC(CN(C(=O)C45CC(F)(C4)C5)c4cccc(C#N)c4)(CC2)CC3)n1` [Example 38, N-((4-(3-(tert-butyl)-1,2,4-oxadiazol-5-yl)bicyclo[2.2.2]octan-1-yl)methyl)-N-(3-cyanophenyl)-3-fluorobicyclo[1.1.1]pentane-1-carboxamide] displayed an EC50 of 142 nM.
